Measurements reported in patent US10981932B2, “Macrocyclic indole derivatives” (Bayer Aktiengesellschaft, priority 2016, dated 2021).
Counter-ions that a name gives are not always drawn.

Key:
MCL-1 = MCL-1 (Homo sapiens, UniProt Q07820); test: Protein-protein interaction assay MCL-1/Noxa BH3 peptide (MCL-1 assay), TR-FRET; format: binding; details: MBP-MCL-1 / Noxa BH3-derived peptide, median
Method in brief: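 TR-FRET, 665/622 nm emission ratio (excitation 330–350 nm), measured MCL-1/Noxa complex formation. 1 nM MBP-MCL-1, 50 mM Tris/HCl pH 7, 0.1% BGG, 2 mM DTT. Incubation 1 h at 22 °C, then overnight at 4 °C. IC50 by 4-parameter regression, normalized to DMSO (0%) and no-MCL-1 (100%) controls.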

SUDHL5 [1] = test: Induction of caspase-3/7 activity (Caspase-Glo 3/7), SUDHL5; format: cell-based; details: caspase-3/7 induction, SUDHL5 cells, 3 h treatment; median
Method in brief: (§1)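 DLBCL cells treated with compounds for 3 h at 37 °C, then caspase-3/7 activity read by Caspase-Glo 3/7 luminescence. Medium-only background subtracted; EC50 fitted with C0 fixed at 1 and top set to the reference compound's maximal induction.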

SUDHL10 [2] = test: Induction of caspase-3/7 activity (Caspase-Glo 3/7), SUDHL10; format: cell-based; details: caspase-3/7 induction, SUDHL10 cells, 3 h treatment; median
Method in brief: as §1

SUDHL5 [3] = test: Anti-proliferative effect (CellTiter-Glo, 72 h), SUDHL5; format: cell-based; details: SUDHL5 cells, antiproliferation, 72 h incubation, median, read-out: Antiproli SUDHL5 [M] (median)
Method in brief: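 A time zero plate, read with CellTiter-Glo shortly after seeding, served as baseline; compound-treated plates were incubated 72 h at 37 °C and then read identically by luminescence.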

SUDHL10 [4] = test: Induction of cytotoxicity (CellTiter-Glo, 5 h), SUDHL10; details: read-out: Cytotox SUDHL10 [M] (median); SUDHL10 cells, cytotoxicity induction, CellTiter-Glo, 5 h incubation, median

Chain of MCL-1 (Q07820 whole entry): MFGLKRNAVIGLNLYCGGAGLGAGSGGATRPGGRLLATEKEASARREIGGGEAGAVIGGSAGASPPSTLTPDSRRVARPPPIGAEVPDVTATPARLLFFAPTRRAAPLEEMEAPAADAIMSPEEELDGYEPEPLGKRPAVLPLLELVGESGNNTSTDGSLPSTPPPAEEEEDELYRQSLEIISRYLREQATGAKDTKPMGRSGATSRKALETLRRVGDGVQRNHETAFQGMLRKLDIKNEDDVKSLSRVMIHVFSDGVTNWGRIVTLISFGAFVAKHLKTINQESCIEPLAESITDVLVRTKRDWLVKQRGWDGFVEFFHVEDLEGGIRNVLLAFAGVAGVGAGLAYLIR

IC50 (MCL-1) | EC50 (SUDHL5 [1]) | EC50 (SUDHL10 [2]) | IC50 (SUDHL5 [3]) | Compound | IC50 (SUDHL10 [4])
0.00355 µM | 4.96 µM | 8.64 µM | 3.62e-06 M | COCc1nn(C)c2c1-c1cccc3c(CCCOc4cccc5ccccc45)c(C(=O)O)n(c13)CCCN(C)C2 (single isomer, unassigned; enantiomer 2) [Example 1-104, 11-(methoxymethyl)-7,9-dimethyl-1-[3-(1-naphthyloxy)propyl]-4,5,6,7,8,9-hexahydropyrazolo[3′,4′:7,8][1,5]diazecino[9,10,1-hi]indole-2-carboxylic Acid (Enantiomer 2)] | 1.78e-05 M
0.00169 µM | 2.15 µM | 7.46 µM | 4.32e-06 M | Cc1nn(C)c2c1-c1cccc3c(CCCOc4ccc(F)c5ccccc45)c(C(=O)O)n(c13)CCCCOC2 (single isomer, unassigned; enantiomer 2) [Example 023, 7-{3-[(4-fluoronaphthalen-1-yl)oxy]propyl}-1,3-dimethyl-1,10,11,12,13,15-hexahydropyrazolo[4′3′:9,10][1,6]oxazacycloundecino[8,7,6-hi]indole-8-carboxylic acid-N-ethylethanamine Salt (Enantiomer 2)] | 5.85e-06 M
0.0322 µM | 21.9 µM | 18.6 µM | 8.04e-06 M | Cc1c2c(nn1CCN1CCOCC1)CN(C)CCCn1c(C(=O)O)c(CCCOc3cccc4ccccc34)c3cccc-2c31 (single isomer, unassigned; enantiomer 2) [Example 061, 7,11-dimethyl-10-[2-(morpholin-4-yl)ethyl]-1-[3-(naphthalen-1-yloxy)propyl]-4,5,6,7,8,10-hexahydropyrazolo[3′,4′:7,8][1,5]diazecino[9,10,1-hi]indole-2-carboxylic Acid (Enantiomer 2)] | 1.75e-05 M
0.0269 µM | > 33 µM | > 33 µM | 1.14e-05 M | Cc1ccc2c(CCCOc3cccc4ccccc34)c(C(=O)O)n3c2c1-c1c(nn(C)c1C)CN(C)CCC3 (single isomer, unassigned; enantiomer 2) [Example 074, 7,10,11,12-tetramethyl-1-[3-(naphthalen-1-yloxy)propyl]-4,5,6,7,8,10-hexahydropyrazolo[3′,4′:7,8][1,5]diazecino[9,10,1-hi]indole-2-carboxylic Acid (Enantiomer 2)] | 1.17e-05 M
